According to US20210254056A1, “IDENTIFICATION AND TARGETED MODULATION OF GENE SIGNALING NETWORKS” (CAMP4 THERAPEUTICS CORPORATION, priority 2017, published 2021):

tested on: hepatocytes; test: RNA-seq of hepatocytes stimulated with the compounds of Table 68; settings: not given

Row | Compound | # of genes having significantly altered expression
1 | COc1cccc(-n2c(=O)[nH]c3cc(Cl)n(-c4ccc(-c5cccc(OC)c5O)cc4)c3c2=O)c1 [GSK621] | 5
2 | CCC1=C(C)CN(C(=O)NCCc2ccc(S(=O)(=O)NC(=O)N[C@H]3CC[C@H](C)CC3)cc2)C1=O [Gilmepiride] | 39
3 | Cn1cc(-c2ccc3nnc(C(F)(F)c4ccc5ncccc5c4)n3n2)cn1 [JNJ-38877605] | 64
4 | c1ccc2c(-c3cnn4cc(-c5ccc(N6CCNCC6)cc5)cnc34)ccnc2c1 [LDN193189] | 67
5 | Oc1c(F)cc(-c2cnccc2-c2ccc(N3CCOCC3)cc2)cc1F [LJI308] | 1
6 | CCCCCCCCCCCCCCCCOC[C@H](COP(=O)([O-])OCC[N+](C)(C)C)OC(C)=O [PAF-C-16] | 7
7 | C[C@H]1[C@H]2N(C(=O)CN(C)N2C(=O)NCc2ccccc2)[C@@H](Cc2ccc(OP(=O)(O)O)cc2)C(=O)N1Cc1cccc2cccnc12 [PRI-724] | 88
8 | OCc1ccc(-c2ccc(-c3ccc(CO)s3)o2)s1 [RITA (NSC 652287)] | 105
9 | O=C1NC(=O)/C(=C/c2cccc(C(F)(F)F)c2)S1 [SMI-4a] | 1436
10 | COc1ccc(C(=O)Nc2sc3c(c2C(N)=O)CCCC3)cc1OC [TCS 359] | 63
11 | Cc1cc(C(C)Nc2ccccc2)c2nc(N3CCOCC3)cc(=O)n2c1 (centres unmarked) [TGX-221] | 1
12 | COc1cccc(-c2cc(NCc3ccc4c(c3)OCO4)nc(N)n2)c1 [Wnt agonist 1] | 138
13 | Pifithrin-μ | 5377
14 | Varenicline tartrate | 7

same assay, conditions: hepatocytes stimulated with the compound; RNA-seq; […]

Row | Compound | # of genes having significantly altered expression
15 | Cc1ccc2nc(NC(=O)CSc3nc4c(c(=O)n3-c3ccccc3)SCC4)sc2c1 [IWP-2] | 15
16 | Cc1ccc(NC(=O)c2ccc(CN3CCN(C)CC3)cc2)cc1Nc1nc(-c2cccnc2)cs1 [Mastinib] | 151

same assay, conditions: hepatocytes stimulated with the compound; RNA-seq; significance: FPKM≥1, q-value≤0.05, log 2 fold change≥1.5

Row | Compound | # of genes having significantly altered expression
17 | NCCc1c[nH]cn1 [Histamine] | 20
18 | O=c1cc(N2CCOCC2)oc2c(-c3ccccc3)cccc12 [LY294002] | 981
19 | NCC(=O)Nc1ccc(-n2nc(C(F)(F)F)cc2-c2ccc3c(ccc4ccccc43)c2)cc1 [OSU-03012] | 1786
20 | COc1ccc2[nH]c([S+]([O-])Cc3ncc(C)c(OC)c3C)nc2c1 (centres unmarked) [Omeprazole] | 61
21 | CCNC1(C(N)=O)CCN(c2ncnc3c2nc(-c2ccccc2Cl)n3-c2ccc(Cl)cc2)CC1 [Otenabant] | 36
22 | COc1cc2c(cc1OC)-c1c(OC)c(OC)cc3ccnc(c13)C2=O [Oxoglaucine] | 31
23 | Cc1[nH]c(/C=C2\C(=O)Nc3ccc(S(=O)(=O)Cc4c(Cl)cccc4Cl)cc32)c(C)c1C(=O)N1CCC[C@@H]1CN1CCCC1 [PHA-665752] | 1767
24 | CNC(=O)c1cc(Oc2ccc(NC(=O)Nc3ccc(Cl)c(C(F)(F)F)c3)c(F)c2)ccn1 [Regorafenib] | 10
25 | Cc1c(C(=O)NN2CCCCC2)nn(-c2ccc(Cl)cc2Cl)c1-c1ccc(Cl)cc1 [Rimonabant] | 1392
26 | Oc1c2ccccc2c2c3c(cccc13)N=N2 [SP600125] | 193
27 | C[C@@H]1CC(=O)c2c(ccc3c2C(=O)c2cccc(O)c2C3=O)C1 [STA-21] | 6
28 | O=C1CCC(N2C(=O)c3ccccc3C2=O)C(=O)N1 (centres unmarked) [Thalidomide] | 3092
29 | Activin | 798
